Several values for one entry are separate records, joined by “and”; a condition that tells them apart may be missing. Equal values may be shown once. Entries after “also recorded” stand apart in the source; their conditions may differ. No end group written: not given here.
Columns and labels:
C57BL/6J mice [1] = assay: In vivo efficiency of decoy peptides (Table 1; LPS challenge in mice); set-up: species or system mouse
Protocol: FIG. 4. Effect of select TRAP decoy peptides on TNF-α and IL-6 in blood following an ip LPS challenge. C57BL/6J mice were injected with TR5, TR6, or TR7 peptide or mock-treated 1 hour before injection of purified E. coli LPS. Peptides and LPS were injected to mice intraperitonealy 10 nmol or 1 μg per gram of animal weight, correspondingly.
(§1) FIG. 10. […] (A-E) C57BL/6J mice were injected i.p. with purified Escherichia coli K235 LPS (1 μg/g) or PBS. Peptides (10 nmol/g of animal weight) were injected i.p. (A, B, D, E) or i.v. (C) 1 h before (A, B, and C) or 30 min after (D, E) i.p. injection of LPS. Data in panels A and D show plasma IL-6 and TNF-α levels measured 2 h after LPS challenge. Peptide TM8/9 was used as a non-inhibitory control peptide. Data represent the means±s.e.m. for 6-12 blood samples obtained in at least three independent experiments. *p<0.01. (F, G) C57BL/6J mice were challenged i.p. with a lethal LPS dose (17.5 μg/g). Peptides (10 nmol/g) were injected i.p. 1 h before LPS challenge. […] The statistical significance of changes in mortality and survival time was determined by the Mantel Cox log-rank test using GraphPad Prism software (Version 5.04). *p<0.01.
(§2) Eight-week-old C57BL/6J mice were injected with 1 or 17.5 μg/g animal weight of E. coli K235 LPS i.p. Peptides reconstituted in PBS were administered i.p. or i.v. Control groups received equivalent volume of solvent (PBS). The blood samples were collected 1, 2, 4, and 8 h, or 2, 8, and 24 h after LPS challenge. The plasma samples were obtained and kept frozen until TNF-α and IL-6 were measured by ELISA. Survival of animals was monitored every 6-16 h after LPS challenge. All animal experiments were carried out with institutional approval.

TLR4 = assay: Inhibition of TLR4 signaling in thioglycollate-elicited mouse macrophages (effective concentration, overall inhibitory activity); format: cell-based; details: for Effective conc.: TLR4 pathway, thioglycollate-elicited mouse macrophages
Protocol: C57BL/6J mice were obtained from The Jackson Laboratory (Bar Harbor, Me.). Primary peritoneal macrophages were obtained by peritoneal lavage 4 days after intraperitoneal injection (3 ml) of sterile 3% thioglycolate broth. Washed cells were resuspended in RPMI 1640 which contained 2% FBS, 1% penicillin:streptomycin and 2 mM L-glutamine. After plating, cells were incubated overnight at 37° C. and then washed with PBS to remove non-adherent cells. Cells were exposed to peptides 30 min before stimulation with a TLR agonist.
TIRAP/Mal functions to facilitate MyD88 recruitment to the activated TLR4 and TLR2, presumably through a simultaneous interaction with receptor and MyD88 TIR domains. Therefore, multiple TIR:TIR interaction sites are expected in TIRAP TIR. The decoy peptide approach was used to obtain leads on the functional protein-protein interfaces within TIRAP/Mal, a TLR adapter protein. To this end, eleven TIRAP TIR-derived decoy peptides were designed to be structurally homologous to the TLR4 TIR-derived decoy peptides used previously (1), so that each peptide represents a non-fragmented patch of the TIRAP TIR surface, with the entire domain encompassed by the set of peptides. The TIRAP TIR-derived decoy peptides were synthesized in tandem with the cell-permeating sequence of Antennapedia homeodomain (21) and each peptide was tested for the ability to inhibit TLR4 and TLR2 signaling in primary mouse macrophages. Peptide sequences and the structural regions they represent are shown in reference (30).
C57BL/6J mice were obtained from The Jackson Laboratory (BarHarbor, Me.). Harvesting, culturing, and stimulation of peritoneal macrophages were described in previous publications (1, 18, 19). Escherichia coli K235 LPS (34) was used at the final concentration of 100 ng/ml. The 2,3-bis(palmitoyloxy)-(2-RS)-propyl-N-palmitoyl-(R)-Cys-Ser-Lys4-OH (P3C) and S[2,3-bis(palmitoyloxy)-(2-RS)-propyl]-[R]-Cys-Ser-Lys4-OH (P2C) (EMC Microcollections, Tubingen, Germany) were used at 500 and 50 ng/ml, respectively. Oligonucleotide (ODN) 1668 and low m.w. polyinosinic-polycytidylic acid [poly(I:C)] in complex with LyoVec were obtained from InvivoGen; these agonists were used at 2.5 μM and 400 ng/ml, respectively.

[2] = test system: mouse peritoneal macrophages; details: 3-h incubation; data not shown
Protocol: A total of 5×10^4 mouse peritoneal macrophages was plated into 96-well tissue culture plates, incubated overnight, and treated with peptides for 3 h. After the treatment, cells were incubated with MTT at 0.5 mg/ml (Sigma-Aldrich) for 3 h. Fifty microliters DMSO was added to cells before reading OD at 540 nm.

C57BL/6J mice [3] = assay: Survival after lethal LPS challenge in C57BL/6J mice; format: in vivo, mouse; details: LPS 17.5 μg/g i.p.
Protocol: as §1, §2
We next studied whether inhibitory peptides protect mice from a lethal LPS challenge. TR6, a previously described inhibitory peptide derived from the third helical region of TRAP (30), was also included in this study as an additional control. C57BL/6J mice were injected i.p. with 17.5 μg/g LPS. This dose induced 100% mortality in the control group (FIG. 10F). […] The peptide-treated survivors appeared active and healthy at the time the experiments were terminated, 7 d after injection of LPS.

C57BL/6J mice [4] = assay: Plasma TNF-α and IL-6 after sublethal LPS challenge in C57BL/6J mice; format: in vivo, mouse
Protocol: as §1, §2
We next studied whether peptides identified as inhibitory in in vitro tests are effective in vivo. C57BL/6J mice were challenged i.p. with a sublethal LPS dose (1 μg/g animal weight), and plasma TNF-α and IL-6 levels were monitored for 8 h after the challenge. In the first series of experiments, we injected 10 nmol/g TM4 or TM6 i.p. 1 h before LPS challenge. The 10 nmol/g dose corresponds to 38, 41, and 32 mg/kg TM4, TM6, and TM4-ΔC, respectively.

MAPK (ERK, JNK, p38) = assay: MAPK activation by peptide alone, macrophages without TLR agonist; format: cell-based, mouse; details: peptide alone; data not shown
Protocol: Neither TIRAP peptide activated ERK in cells incubated without a TLR agonist (not shown). […] The mechanism of this differential MAPK activation by select peptides, although interesting, is not understood at this time. Peptides TR9 and TR11 inhibited both ERK and JNK MAPKs (FIG. 1D). Peptide-induced inhibition of ERK persisted over a long period of time.
We next examined whether TRAM peptides inhibit the TLR4-mediated p38, ERK, and JNK MAPK activation. Murine macrophages pretreated with peptides for 30 min were challenged with LPS. Cell lysates were collected 30 min post-stimulation and analyzed for MAPK phosphorylation by Western analysis. Consistent with peptide effects on steady-state mRNA, both TM4 and TM6 inhibited activation of all three MAPKs (FIG. 5C). The inhibition of MAPKs by TM4 or TM6 was long lasting; it persisted for at least 1 h after LPS stimulation (data not shown). To characterize further the effects of TRAM peptides on MAPKs, murine macrophages were treated with TRAM peptides, but not challenged by LPS.

Q: Which In vivo efficiency (C57BL/6J mice [1]) does the source give for RQIKIWFQNRRMKWKKCLQDAIDHS [TF5-ΔC] here?
A: Its In vivo efficiency is “Yes, i.p”.

Q: And the Effective conc. (TLR4)?
A: The Effective conc. was 20 µM.

Q: RQIKIWFQNRRMKWKKENFLRDTWCNFQFY [TM6] was tested. Which “Cell viability (MTT)” value [2] did it give?
A: Its value is “Neither inhibitory peptide affected cell viability in a significant way”.

Q: Which results are given for RQIKIWFQNRRMKWKKIVFAEMPCG [TM4-ΔC]?
A: In vivo efficiency (C57BL/6J mice [1]): yes, i.p.; Effective conc. (TLR4): 10 µM; Inhibitory activity of modified TM4 peptides on TLR4-driven MAPK activation and cytokine mRNA (FIG. 8) (TLR4; relative ranking among TM4 variants): close to that of TM4; Survival after lethal LPS challenge (C57BL/6J mice [3]; peptide 10 nmol/g i.p. 1 h before): rescued all animals and 10 of 10 and protect; Survival after lethal LPS challenge, therapeutic administration (C57BL/6J mice [3]; peptide i.p. 3 h after LPS): Five of seven; Plasma TNF-α and IL-6 (C57BL/6J mice [4]; 10 nmol/g i.p. 30 min after LPS, 2 h after LPS or thereafter): markedly diminished; Circulating TNF-α and IL-6 (C57BL/6J mice [4]; 10 nmol/g i.p. 30 min after LPS, measured 1 h after LPS): did not affect; Circulating IL-6 and TNF-α levels (C57BL/6J mice [4]; 10 nmol/g i.v., LPS i.p., 8-h observation): significantly lowered; Efficiency with respect to circulating IL-6 at 4- or 8-h time points (C57BL/6J mice [4]; dose increased to 25 nmol/g): did not augment; LPS-induced systemic cytokine response in vivo (C57BL/6J mice [4]; sublethal LPS 1 μg/g, peptide 10 nmol/g): strongly suppress; also recorded: effectively suppress

Q: Which “Cell viability (MTT)” value [2] does the source give for RQIKIWFQNRRMKWKKIVFAEMPCGRLHLQ [TM4] here?
A: The value was “Neither inhibitory peptide affected cell viability in a significant way”.

Q: “TM3: TRAM decoy peptide: Antennapedia sequence at N terminus of QNDFGIRPG (RQIKIWFQNRRMKWKKQNDFGIRPG)” was tested. Which “p38 and ERK MAPK activation without LPS stimulation” value (MAPK (ERK, JNK, p38)) did it give?
A: The value was “weakly activated”.
